These results are taken from publication PMC8760490, “Discovery of novel furanylbenzamide inhibitors that target oncogenic tyrosine phosphatase SHP2 in leukemia cells” (The Journal of Biological Chemistry, 2021).

The target in test [1] is T1, full-length SHP2 WT (SHP2-WT) (Homo sapiens, UniProt Q06124).
T1 construct: Recombinant human full-length SHP2 (1–594) WT and E76K mutants; made in house
As to the kind of experiment: DiFMUP fluorescence phosphatase inhibition assay, SHP2-WT activated with IRS-1 peptide. It counts as biochemical. The conditions noted are these: DiFMUP at Km (60 μM), pH 6.0. From the text: (§1) To test the synthesized compounds for their potential to inhibit SHP2 activity, a fluorescence intensity-based assay using 6,8-difluoro-4-methylumbelliferyl phosphate (DiFMUP) as the substrate was adapted for three recombinant SHP2 constructs: (1) the SHP2 catalytic domain (SHP2cat; residues 248–527), (2) the full-length SHP2-E76K oncogenic mutant, and (3) the full-length SHP2 WT (SHP2-WT). The recombinant SHP2 proteins were expressed and purified as described previously ([36]). A dually phosphorylated peptide derived from the insulin receptor substrate 1 (IRS-1) served as a surrogate binding protein and was used to activate SHP2-WT ([30], [36]). […] Michaelis–Menten experiments to determine the DiFMUP Michaelis–Menten constant (Km) for each SHP2 construct were performed as described previously ([36]) and yielded the following values: SHP2-WT, Km = 60 μM; SHP2-E76K, Km = 20 μM; and SHP2cat, Km = 20 μM. Relative maximum rates (Vmax) of the DiFMUP reactions expressed as relative fluorescence units per minute (RFU/min) were as follows: SHP2-WT, Vmax = 871 RFU/min; SHP2-E76K, Vmax = 2730 RFU/min; and SHP2cat, Vmax = 2912 RFU/min. IC50 values for each compound were determined from initial rates in 10-point dose–response assays using DiFMUP at a concentration corresponding to its Km value for the respective SHP2 construct. […] Replacements for the benzothiophenone were explored using analog #10.
(§2) Recombinant human full-length SHP2 (1–594) WT and E76K mutants, as well as the SHP2cat (248–527), were expressed and purified as described before ([36], [41]). Recombinant human PTP1B (1–300) and the codon-optimized STEP (280–566) catalytic domains were cloned into PET-15b and expressed as N-His-tagged fusion proteins. For expression, transformed BL21(DE3) cells were grown and induced similar as described for SHP2. Collected cells were resuspended in lysis buffer (25 mM Tris, pH 7.5, 300 mM NaCl, 50 mM imidazole, and 10% glycerol) with 100 mg/l RNaseA and were lysed with two passages using a microfluidizer. The lysate was clarified by centrifugation at 15,000g for 50 min and applied to nickel–nitrilotriacetic acid resin. The column resin was washed, and the PTP1B or STEP protein was eluted in lysis buffer at 300 mM imidazole. The PTP1B or STEP protein was further purified by S75 size-exclusion chromatography in 50 mM Tris, pH 7.5, 50 mM NaCl. The eluted peak fractions were supplemented with tris(2-carboxyethyl)phosphine to 10 mM, concentrated by ultrafiltration, and stored at −80 °C. The purified yield of PTP1B was 33 mg/l cell culture; the yield of STEP was 16 mg/l cell culture.
(§3) SHP2 inhibitors were tested at RT in a 384-well plate format standard phosphatase fluorescence intensity assay using DiFMUP (Invitrogen/Thermo Fisher Scientific) as a substrate and a total reaction volume of 25 μl. SHP2 inhibitors or vehicle (DMSO) were spotted in triplicate into a black Greiner FLUOTRAC 200 384-well microplate (catalog no.: 781076; Greiner) for a 10-point dose–response assay using an Echo 555 Liquid Handler (Labcyte, Inc). PTP working solutions were prepared at a 0.625 nM concentration (for a final concentration of 0.5 nM) in buffer containing 50 mM Bis–Tris, pH 6.0, 50 mM NaCl, 5 mM DTT, and 0.01% Tween-20. Prior to the assay, a dually phosphorylated IRS-1 peptide (625 nM [500 nM final] ([30])) was added to full-length WT SHP2 working solutions and incubated for 20 min. DiFMUP working solutions at 5× final concentration were prepared in 50 mM Bis–Tris, pH 6.0, 50 mM NaCl, and 0.01% Tween-20. About 20 μl of PTP working solution was dispensed into the microplate and incubated with inhibitor for 20 min at RT. […] The reaction was initiated by addition of 5 μl DiFMUP working solutions. Fluorescence intensity was measured in kinetic mode (every minute for 7 or 10 min) using a Tecan Spark Multimode Microplate Reader (Tecan) with an excitation wavelength of 360 nm and an emission wavelength of 460 nm. […]

Test [2] deals with T2, full-length SHP2-E76K oncogenic mutant (Homo sapiens, UniProt Q06124, E76K).
T2 construct: Recombinant human full-length SHP2 (1–594) WT and E76K mutants; made in house
T2 sequence (Q06124 1-593 E76K): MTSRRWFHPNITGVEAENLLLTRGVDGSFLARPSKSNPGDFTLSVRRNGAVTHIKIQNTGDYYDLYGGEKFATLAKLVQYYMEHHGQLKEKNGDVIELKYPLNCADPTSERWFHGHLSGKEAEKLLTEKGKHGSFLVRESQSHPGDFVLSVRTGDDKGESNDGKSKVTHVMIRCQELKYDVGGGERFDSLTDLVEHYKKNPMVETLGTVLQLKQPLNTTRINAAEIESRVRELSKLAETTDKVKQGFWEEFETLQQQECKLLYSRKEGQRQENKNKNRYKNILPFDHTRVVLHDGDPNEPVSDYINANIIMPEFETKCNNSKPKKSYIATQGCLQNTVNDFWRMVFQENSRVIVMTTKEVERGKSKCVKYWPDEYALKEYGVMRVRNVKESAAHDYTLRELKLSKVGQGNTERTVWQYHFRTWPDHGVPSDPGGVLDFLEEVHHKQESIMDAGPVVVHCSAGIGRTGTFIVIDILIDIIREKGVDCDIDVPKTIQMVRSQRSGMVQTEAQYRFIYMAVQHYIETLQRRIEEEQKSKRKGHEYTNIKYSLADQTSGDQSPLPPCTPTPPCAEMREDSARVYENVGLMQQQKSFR
As to the kind of experiment: DiFMUP fluorescence phosphatase inhibition assay, SHP2-E76K. Particulars: DiFMUP at Km (20 μM), 10-point dose–response, pH 6.0. Format: biochemical.
Description: as §1, §2, §3

The target of test [3] is T3, SHP2 catalytic domain (SHP2cat; residues 248–527) (Homo sapiens, UniProt Q06124).
T3 construct: the SHP2 catalytic domain (SHP2cat; residues 248–527); made in house
T3 sequence (Q06124 248-527): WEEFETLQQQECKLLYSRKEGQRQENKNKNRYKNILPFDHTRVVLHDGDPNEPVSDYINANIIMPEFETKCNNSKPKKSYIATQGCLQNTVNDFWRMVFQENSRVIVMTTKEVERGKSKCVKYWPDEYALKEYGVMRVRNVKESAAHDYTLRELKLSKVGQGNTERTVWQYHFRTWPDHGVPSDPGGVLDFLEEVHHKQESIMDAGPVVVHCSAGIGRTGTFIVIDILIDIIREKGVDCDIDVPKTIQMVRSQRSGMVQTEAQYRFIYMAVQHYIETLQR
The test can be described thus: DiFMUP fluorescence phosphatase inhibition assay, SHP2cat. Format: biochemical. Particulars: DiFMUP at Km (20 μM), pH 6.0; read-out: SHP2cat; IC50.
Description: as §1, §2, §3

The subject of test [4] is KYSE-520 esophageal cancer cells. As to the kind of experiment: Cell viability (CellTiter-Glo), KYSE-520. It counts as cell-based. Particulars: various concentrations, 3 days. The procedure:
(§4) Inhibition of SHP2 has been reported to inhibit the growth of cancer cells including Kasumi-1 acute myeloid leukemia (AML) and KYSE-520 esophageal cancer cells ([30]). […] Thus, we treated two TNBC cell lines, BT-549 and MDA-MB-468, with SBI-4668 or the SHP2 allosteric inhibitor SHP099 at various concentrations and determined cell viability after 72 h, compared with the vehicle control (Fig. 4C). […] Next, we performed an 11-day colony formation assay with TNBC cells treated with SBI-4668 or SHP099 at 5, 10, or 20 μM (Fig. 4D).
(§5) Viability of AML and esophageal carcinoma cells was assessed using the ATP-depletion assay CellTiter-Glo (Promega). Cells were harvested at 1 × 10^6/ml to 2 × 10^6 cells/ml with cell numbers determined by trypan blue using the Countess Cell counter (Thermo Scientific) and resuspended in culture media. About 3000 cells (in 20 μl) were seeded in a 384-well format white and clear-bottom microplate (catalog no.: 781098; Greiner) spotted with test compound or vehicle control (DMSO) using an Echo 555 Liquid Handler. Cells were incubated for 3 days, before 10 μl of CellTiter-Glo reagent mix was added to each well and incubated for 10 min at RT. Luminescence was read on a Tecan Spark Multimode Microplate Reader, and data were analyzed using GraphPad Prism software.
For orientation: ATP-based viability assays read luminescence as a measure of living cells.

Test [5] relates to Kasumi-1 acute myeloid leukemia (AML) cells. The test can be described thus: Cell viability (CellTiter-Glo), Kasumi-1. It counts as cell-based. The conditions noted are these: various concentrations, 3 days. The procedure: as §4, §5

Molecules are shown by their SMILES. Where only a bound is given, the exact number is not on record here.

Turning to `O=C(O)c1cc(-c2ccc(/C=C3\Oc4ccccc4C3=O)o2)ccc1O` [SBI-0165, (Z)-2-Hydroxy-5-(5-((3-oxobenzofuran-2(3H)-ylidene)methyl)furan-2-yl)benzoic acid], the IC50 was determined as 13 µM in test [1], 7.2 µM in test [2] and 2.4 µM in test [3].
On the same counts, the results for `Nc1cccc(NC(=O)c2cc(-c3ccc(/C=C4\Sc5ccccc5C4=O)o3)ccc2O)c1` [SBI-2126, (Z)-N-(3-Aminophenyl)-2-hydroxy-5-(5-((3-oxobenzo[b]thiophen-2(3H)-ylidene)methyl)furan-2-yl)benzamide] are 18 µM, 7.2 µM and 5 µM.
Take `O=C(NNc1ccccc1)c1cc(-c2ccc(/C=C3\Sc4ccccc4C3=O)o2)ccc1O` [SBI-2128, (Z)-2-Hydroxy-5-(5-((3-oxobenzo[b]thiophen-2(3H)-ylidene)methyl)furan-2-yl)-N′-phenylbenzohydrazide]: the results for the IC50 in test [1], in test [2] and in test [3] were 14 µM, 11 µM and 3.1 µM, respectively.
For `O=C1/C(=C/c2ccc(-c3ccc(O)c(C(=O)N4CCCCC4)c3)o2)Sc2ccccc21` [SBI-2131, (Z)-2-((5-(4-Hydroxy-3-(piperidine-1-carbonyl)phenyl)furan-2-yl)methylene)benzo[b]thiophen-3(2H)-one], the IC50 stood at 52 µM in test [1], 15 µM in test [2] and 4.3 µM in test [3].
On the same counts, the results for `O=C1CCCC1=Cc1ccc(-c2ccc(O)c(C(=O)O)c2)o1` [SBI-3191, 2-Hydroxy-5-(5-((2-oxocyclopentylidene)methyl)furan-2-yl)benzoic acid] are 24 µM, 6 µM and 7.4 µM.
On the same counts, the results for `O=C(O)c1cc(-c2ccc(C=C3Cc4ccccc4C3=O)o2)ccc1O` [SBI-3204, 2-Hydroxy-5-(5-((1-oxo-1,3-dihydro-2H-inden-2-ylidene)methyl)furan-2-yl)benzoic acid] are 15 µM, 10 µM and 4.5 µM.
In turn, `CC(C)NC(=O)c1cccc(-c2ccc(/C=C3\Sc4ccccc4C3=O)o2)c1` [SBI-9639, (Z)-N-isopropyl-3-(5-((3-oxobenzo[b]thiophen-2(3H)-ylidene)methyl)furan-2-yl)benzamide] returned an IC50 in test [1] of more than 100 µM. Besides, in test [4], the “effect on KYSE-520 cell growth” value is recorded as “no notable effects”. Besides, the “effect on Kasumi-1 cell growth” value in test [5] is given as “no notable effects”.
